# Results as given in publication PMC7760004, “Hydrocarbon-Stapled Peptide Based-Nanoparticles for siRNA Delivery” (Nanomaterials, 2020).
# Peptide text beside a SMILES is read from it. * marks the point of attachment. FITC = O=C1OC2(c3ccc(O)cc3Oc3cc(O)ccc32)c2ccc(NC(=S)*)cc21; Ahx = NCCCCCC(=O)O
# Legend:
# MDA-MB-231 cells = experiment: Cellular uptake of FITC-stapled peptides (plate-reader fluorescence); settings: MDA-MB-231, 5 µM FITC-peptide, 4 h
# Description: MDA-MB-231 cells were seeded in black 96-well plate in 200 μL of their corresponding medium. After 24 h of cell growth, cells were treated with 5 µM concentration of FITC-stapled peptides for 4 h. Total fluorescence (TF) was measured using CLARIOstar® High Performance Monochromator Multimode Microplate Reader (BMG Labtech, Ortenberg, Germany) at excitation/emission of 483-14/530-30 nm. Cells were washed three times with PBS and remaining fluorescence (RF) was measured using the same conditions. The percentage of uptake values were presented as relative mean fluorescence and normalized with respect to Penetratin used as a standard control and set at 100%.
# [1] = Circular dichroism, determination of helical content; assay type: physicochemical; settings: water/TFE (95/5)
# Description: Circular dichroism experiments were carried out using a Jasco J815 spectropolarimeter. Spectra (Jasco, Easton, MD, USA) were typically recorded with 100 μM of peptides dissolved in a water/TFE mixture (95/5), pH 7, using a 1 mm pathlength CD cuvette at 20 °C, over a wavelength range of 190–260 nm. The peptide concentrations were normalized measuring the OD at 490 nm considering a molar coefficient extinction (ε490) for the FITC of 76,900 cm^−1 M^−1. Continuous scanning mode was used, with a response of 1.0 s with 0.1 nm steps and a bandwidth of 2 nm. The signal to noise ratio was improved by acquiring each spectrum over an average of two scans. Baseline was corrected by subtracting the background from the sample spectrum. Alpha helical content was determined using the following equation: % Helix = ([θ])obs × 100)/(−39,500 × (1 − 2.57/n), where ([θ])obs is the mean residue ellipticity at 222 nm and n the number of peptide bonds.
compound,measurement,setting,value
CC[C@H](C)[C@H](NC(=O)[C@H](C)NC(=O)[C@H](CCCNC(=N)N)NC(=O)[C@H](CCCNC(=N)N)NC(=O)CCCCCNC(=S)Nc1ccc2c(c1)C(=O)OC21c2ccc(O)cc2Oc2cc(O)ccc21)C(=O)N[C@H](C(=O)N[C@H](C(=O)N[C@@H](C)C(=O)N[C@@H](CCCNC(=N)N)C(=O)N[C@@H](CCCNC(=N)N)C(=O)N[C@@H](CS)C(N)=O)[C@@H](C)CC)[C@@H](C)CC [JMV6579] ({FITC-Ahx}-RRAIIIARRC-NH2),"ability to enter cells (uptake, in words)",MDA-MB-231 cells,almost not able to enter cells
same,α Helix (%),"[1]; CD, 100 μM peptide, pH 7, 20 °C, from mean residue ellipticity at 222 nm",5%
same,CD profile (folding),"[1]; far-UV CD, 20 °C",remained partially unfolded
